Measurements published in patent publication US5869489A, “Trypthophan ureas as neurokinnin antagonists” (Merck & Co., Inc., priority 1997, dated 1999).
pIC50: −log10 of the molar value. Like-named read-outs stand apart in the source and are kept apart here.

Key:
human NK1R = biological target: T1, human NK1R (Homo sapiens, UniProt P25103); assay: Binding assay of human NK1R expressed in COS or CHO cells, displacement of 125I-substance P (Table 1, hNK1); conditions: for IC50: human NK1 receptor, 125I-substance P ligand, read-out: hNK1 (IC50 nM)
T1 construct: expressed in transfected cells
T1 sequence (P25103 whole entry): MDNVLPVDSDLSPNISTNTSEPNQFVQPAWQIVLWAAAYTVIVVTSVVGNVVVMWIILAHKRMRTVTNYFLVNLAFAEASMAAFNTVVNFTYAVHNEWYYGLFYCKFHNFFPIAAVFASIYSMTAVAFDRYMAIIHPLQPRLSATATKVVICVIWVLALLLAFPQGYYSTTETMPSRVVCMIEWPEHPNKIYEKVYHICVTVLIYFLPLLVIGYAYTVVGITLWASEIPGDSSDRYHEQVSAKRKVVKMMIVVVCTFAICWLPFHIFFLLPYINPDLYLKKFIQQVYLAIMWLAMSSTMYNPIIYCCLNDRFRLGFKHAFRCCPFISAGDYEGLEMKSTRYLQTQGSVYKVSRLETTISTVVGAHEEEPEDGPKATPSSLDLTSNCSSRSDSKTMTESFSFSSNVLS
Procedure: (§1) A. Receptor Expression in COS
(§2) To express the cloned human neurokinin-1 receptor (NK 1R) transiently in COS, the cDNA for the human NK 1R was cloned into the expression vector pCDM9 which was derived from pCDM 8 (INVITROGEN) by inserting the ampicillin resistance gene (nucleotide 1973 to 2964 from BLUESCRIPT SK+) into the Sac II site. Transfection of 20 μg of the plasmid DNA into 10 million COS cells was achieved by electroporation in 800 μl of transfection buffer (135 mM NaCl, 1.2 mM CaCl2, 1.2 mM MgCl2, 2.4 mM K2 HPO4, 0.6 mM KH2 PO4, 10 mM glucose, 10 mM HEPES pH 7.4) at 260 V and 950 uF using the IBI GENEZAPPER (IBI, New Haven, Conn.). The cells were incubated in 10% fetal calf serum, 2 mM glutamine, 100 U/ml penicillin-streptomycin, and 90% DMEM media (GIBCO, Grand Island, N.Y.) in 5% CO2 at 37° C. for three days before the binding assay. Similar methods were used to express the NK2 receptor.
(§3) B. Stable Expression in CHO
(§4) To establish a stable cell line expressing the cloned human NK1R, the cDNA was subcloned into the vector pRcCMV (INVITROGEN). Transfection of 20 μg of the plasmid DNA into CHO cells was achieved by electroporation in 800 μl of transfection buffer suplemented with 0.625 mg/ml Herring sperm DNA at 300 V and 950 uF using the IBI GENEZAPPER (IBI). The transfected cells were incubated in CHO media (10% fetal calf serum, 100 U/ml pennicilin-streptomycin, 2 mM glutamine, 1/500 hypoxanthine-thymidine(ATCC), 90% IMDM media (JRH BIOSCIENCES, Lenexa, Kans.), 0.7 mg/ml G418 (GIBCO)) in 5% CO2 at 37° C. until colonies were visible. Each colony was separated and propagated. The cell clone with the highest number of human NK1R was selected for subsequent applications such as drug screening. Similar methods were used to express the human NK2 receptor.
(§5) C. Assay Protocol using COS or CHO The binding assay of human NK1R expressed in either COS or CHO cells is based on the use of ^125 I-substance P (^125 I-SP, from DU PONT, Boston, Mass.) as a radioactively labeled ligand which competes with unlabeled substance P or any other ligand for binding to the human NK1R. […] In the binding assay, 500 μl of cells were added to a tube containing 20 μl of 1.5 to 0.25 nM of ^125 I-SP and 5 μl of unlabeled substance P or any other test compound in DMSO. The tubes were incubated at 4° C. or at room temperature for 1 hour with gentle shaking. The bound radioactivity was separated from unbound radioactivity by GF/C filter (BRANDEL, Gaithersburg, Md.) which was pre-wetted with 0.1% polyethylenimine. The filter was washed with 3 ml of wash buffer (50 mM Tris pH 7.5, 5 mM MnCl2, 150 mM NaCl) three times and its radioactivity was determined by gamma counter. A similar assay was used for NK2 except ^125 I-NKA was used as the ligand.

human NK2 receptor = biological target: T2, human NK2 receptor (Homo sapiens, UniProt P21452); assay: Binding assay of NK2 receptor expressed in COS or CHO cells, displacement of 125I-NKA (Table 1, hNK2); conditions: for IC50: human NK2 receptor, 125I-NKA ligand, read-out: hNK2 (IC50 nM)
T2 construct: expressed in transfected cells
T2 sequence (P21452 1-398): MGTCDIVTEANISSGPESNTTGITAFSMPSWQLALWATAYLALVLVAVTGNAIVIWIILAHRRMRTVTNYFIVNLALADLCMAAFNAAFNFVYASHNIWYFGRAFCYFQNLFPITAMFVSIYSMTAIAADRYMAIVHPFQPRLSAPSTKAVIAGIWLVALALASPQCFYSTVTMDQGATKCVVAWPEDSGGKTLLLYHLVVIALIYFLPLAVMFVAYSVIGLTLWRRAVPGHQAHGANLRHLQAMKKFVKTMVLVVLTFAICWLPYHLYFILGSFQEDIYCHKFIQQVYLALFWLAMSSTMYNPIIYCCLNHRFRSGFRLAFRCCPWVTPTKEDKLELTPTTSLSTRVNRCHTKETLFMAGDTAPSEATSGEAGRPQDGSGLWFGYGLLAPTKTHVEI
Procedure: as §1, §2, §3, §4, §5

SMILES: CN(Cc1ccccc1)C(=O)[C@H](Cc1c[nH]c2ccccc12)NC(=O)N1CCC2(C=Cc3ccccc32)CC1 [Example 1, N-Benzyl-N-methyl-2-(S)-((spiro-1H-indene-1,4'-piperidino)-carbonyl-amino)-3-(3-indolyl)propionamide]
- IC50 (human NK1R): 40 nM
- IC50 (human NK2 receptor): 10 nM

SMILES: CS(=O)(=O)N1CC2(CCN(C(=O)N[C@@H](Cc3c[nH]c4ccccc34)C(=O)NCc3ccccc3)CC2)c2ccccc21 [Example 2, N-Benzyl-2-(S)-((1-methanesulfonyl-spiroindoline-3,4'-piperidino)-carbonyl-amino)-3-(3-indolyl)propionamide]
- IC50 (human NK1R): 70 nM
- IC50 (human NK2 receptor): 40 nM

SMILES: O=C(OCc1cc(C(F)(F)F)cc(C(F)(F)F)c1)[C@H](Cc1c[nH]c2ccccc12)NC(=O)N1CCC2(C=Cc3ccccc32)CC1 [Example 3, 3,5-Bistrifluoromethylbenzyl 2-(S)-((spiro-1H-indene-1,4'-piperidino)-carbonyl-amino)-3-(3-indolyl)propionate]
- IC50 (human NK1R): 1 nM
- IC50 (human NK2 receptor): > 1000 nM

SMILES: CN(Cc1ccccc1)C(=O)[C@H](Cc1c[nH]c2ccccc12)NC(=O)N1CCC2(CCc3ccccc32)CC1 [Example 4, N-Benzyl-N-methyl-2-(S)-((spiroindane-1,4'-piperidino)-carbonyl-amino)-3-(3-indolyl)propionamide]
- IC50 (human NK1R): 50 nM
- IC50 (human NK2 receptor): 8 nM

SMILES: CN(Cc1ccccc1)C(=O)[C@H](Cc1c[nH]c2ccccc12)NC(=O)N1CCC2(CC1)CN(S(C)(=O)=O)c1ccccc12 [Example 5, N-Benzyl-N-methyl-2-(S)-((1-methanesulfonyl-spiroindoline-3,4'-piperidino)-carbonyl-amino)-3-(3-indolyl)propionamide]
- IC50 (human NK1R): 20 nM
- IC50 (human NK2 receptor): 12 nM

SMILES: CC(=O)N1CC2(CCN(C(=O)N[C@@H](Cc3c[nH]c4ccccc34)C(=O)N(C)Cc3ccccc3)CC2)c2ccccc21 [Example 6, N-Benzyl-N-methyl-2-(S)-((1-acetylspiroindoline-3,4'-piperidino)-carbonyl-amino)-3-(3-indolyl)propionamide]
- IC50 (human NK1R): 15 nM
- IC50 (human NK2 receptor): 30 nM

SMILES: CN(Cc1ccccc1)C(=O)[C@H](Cc1c[nH]c2ccccc12)NC(=O)N1CCC(c2ccccc2)CC1 [Example 7]
- IC50 (human NK1R): 60 nM
- IC50 (human NK2 receptor): 50 nM

SMILES: CN(Cc1ccccc1)C(=O)[C@H](Cc1c[nH]c2ccccc12)NC(=O)N1CCC(Cc2ccccc2)CC1 [Example 8, N-Benzyl-N-methyl-2-(S)-((4-benzylpiperidino)-carbonyl-amino)-3-(3-indolyl)propionamide]
- IC50 (human NK1R): 90 nM
- IC50 (human NK2 receptor): 25 nM

SMILES: CC(=O)NC1(c2ccccc2)CCN(C(=O)N[C@@H](Cc2c[nH]c3ccccc23)C(=O)N(C)Cc2ccccc2)CC1 [Example 9, N-Benzyl-N-methyl-2-(S)-(((4-phenyl-4-acetylamino)piperidino)-carbonyl-amino)-3-(3-indolyl)propionamide]
- IC50 (human NK1R): 60 nM
- IC50 (human NK2 receptor): > 100 nM

SMILES: CN(Cc1ccccc1)C(=O)[C@H](Cc1c[nH]c2ccccc12)NC(=O)N1CCN(Cc2ccccc2)CC1 [Example 10, N-Benzyl-N-methyl-2-(S)-((4-benzylpiperazino)-carbonyl-amino)-3-(3-indolyl)propionamide]
- IC50 (human NK1R): 60 nM
- IC50 (human NK2 receptor): 100 nM

SMILES: CN(Cc1ccccc1)C(=O)[C@H](Cc1c[nH]c2ccccc12)NC(=O)N1CCC(N2C(=O)NCc3ccccc32)CC1 [Example 11]
- pIC50 (human NK1R): 7.00
- pIC50 (human NK2 receptor): 7.22

SMILES: COc1ccccc1N1CCN(C(=O)N[C@@H](Cc2c[nH]c3ccccc23)C(=O)N(C)Cc2ccccc2)CC1 [Example 12, N-Benzyl-N-methyl-2-(S)-((4-(2-methoxyphenyl)piperazino)-carbonyl-amino)-3-(3-indolyl)propionamide]
- IC50 (human NK1R): 20 nM
- IC50 (human NK2 receptor): 25 nM

SMILES: Cc1ccccc1N1CCN(C(=O)N[C@@H](Cc2c[nH]c3ccccc23)C(=O)N(C)Cc2ccccc2)CC1 [Example 13, N-Benzyl-N-methyl-2-(S)-((4-(2-methylphenyl)piperazino)-carbonyl-amino)-3-(3-indolyl)propionamide]
- IC50 (human NK1R): 30 nM
- IC50 (human NK2 receptor): 15 nM

SMILES: O=C(Nc1ccccc1)[C@H](Cc1c[nH]c2ccccc12)NC(=O)N1CCC2(CCc3ccccc32)CC1 [Example 14, N-Phenyl-2-(S)-((spiroindane-1,4'-piperidino)-carbonyl-amino)-3-(3-indolyl)propionamide]
- IC50 (human NK1R): > 1000 nM
- IC50 (human NK2 receptor): 650 nM

SMILES: O=C(NCc1ccccc1)[C@H](Cc1c[nH]c2ccccc12)NC(=O)N1CCC2(CCc3ccccc32)CC1 [Example 15, N-Benzyl-2-(S)-((spiroindane-1,4'-piperidino)-carbonyl-amino)-3-(3-indolyl)propionamide]
- IC50 (human NK1R): 100 nM
- IC50 (human NK2 receptor): 35 nM

SMILES: Cc1ccccc1CNC(=O)[C@H](Cc1c[nH]c2ccccc12)NC(=O)N1CCC2(CCc3ccccc32)CC1 [Example 16, N-(2-Methylbenzyl)-2-(S)-((spiroindane-1,4'-piperidino)-carbonyl-amino)-3-(3-indolyl)propionamide]
- IC50 (human NK1R): 100 nM
- IC50 (human NK2 receptor): 15 nM

SMILES: Cc1cccc(CNC(=O)[C@H](Cc2c[nH]c3ccccc23)NC(=O)N2CCC3(CCc4ccccc43)CC2)c1 [Example 17, N-(3-Methylbenzyl)-2-(S)-((spiroindane-1,4'-piperidino)-carbonyl-amino)-3-(3-indolyl)propionamide]
- IC50 (human NK1R): 60 nM
- IC50 (human NK2 receptor): 65 nM

SMILES: Cc1ccc(CNC(=O)[C@H](Cc2c[nH]c3ccccc23)NC(=O)N2CCC3(CCc4ccccc43)CC2)cc1 [Example 18, N-(4-Methylbenzyl)-2-(S)-((spiroindane-1,4'-piperidino)-carbonyl-amino)-3-(3-indolyl)propionamide]
- IC50 (human NK1R): 100 nM
- IC50 (human NK2 receptor): 200 nM

SMILES: O=C(NCCc1ccccc1)[C@H](Cc1c[nH]c2ccccc12)NC(=O)N1CCC2(CCc3ccccc32)CC1 [Example 19]
- IC50 (human NK1R): 200 nM
- IC50 (human NK2 receptor): 56 nM

SMILES: CCN(Cc1ccccc1)C(=O)[C@H](Cc1c[nH]c2ccccc12)NC(=O)N1CCC2(CCc3ccccc32)CC1 [Example 20, N-Benzyl-N-ethyl-2-(S)-((spiroindane-1,4'-piperidino)-carbonyl-amino)-3-(3-indolyl)propionamide]
- IC50 (human NK1R): 120 nM
- IC50 (human NK2 receptor): 25 nM

SMILES: C[C@H](NC(=O)[C@H](Cc1c[nH]c2ccccc12)NC(=O)N1CCC2(CCc3ccccc32)CC1)c1ccccc1 [Example 21, N-(1(S)-Phenylethyl)-2(S)-((spiroindane-1,4'-piperidino)-carbonyl-amino)-3-(3-indolyl)propionamide]
- IC50 (human NK1R): 80 nM
- IC50 (human NK2 receptor): 16 nM

SMILES: C[C@@H](NC(=O)[C@H](Cc1c[nH]c2ccccc12)NC(=O)N1CCC2(CCc3ccccc32)CC1)c1ccccc1 [Example 22, N-(1(R)-Phenylethyl)-2(S)-((spiroindane-1,4'-piperidino)-carbonyl-amino)-3-(3-indolyl)propionamide]
- IC50 (human NK1R): 1000 nM
- IC50 (human NK2 receptor): 28 nM

SMILES: Cc1cccc(CN(C)C(=O)[C@H](Cc2c[nH]c3ccccc23)NC(=O)N2CCC3(CC2)CN(S(C)(=O)=O)c2ccccc23)c1 [Example 25, N-(3-Methylphenyl)methyl-N-methyl-2-(S)-((1-methanesulfonyl-spiroindoline-3,4'-piperidino)-carbonyl-amino)-3-(3-indolyl)propionamide]
- IC50 (human NK1R): 8 nM
- IC50 (human NK2 receptor): 85 nM
